Experiments:
[1] = test system: U2932 (B-cell lymphoma cells); assay: Cell apoptosis (PARP and Caspase 3 cleavage) in U2932; type: cell-based
Procedure: Various concentrations (0.5 μM, 1 μM, 5 μM, 10 μM) of Compound 1 was administered to Pfeiffer (human diffuse large cell lymphoma B lymphocytes, purchased from Cobioer Biosciences Co., LTD (Nanjing)) and U2932 (B-cell lymphoma cells, purchased from ATCC) in order to confirm whether cell death after the administration was caused by apoptosis or necrosis. After 48 hours, effects of Compound 1 on protein cleavage of the DNA repairase poly(ADP-ribose) polymerase (PARP) and Caspase (cysteinyl aspartate-specific proteinase) 3 that were closely related to cell apoptosis was examined.

[2] = test system: phosphorylation of tyrosine Y223 on Btk; assay: Effects on BTK Y223 and downstream signaling pathway proteins in cells (anti-IgM stimulation); type: cell-based, human; conditions: Compound 1 in MEC-2, Pfeiffer, Ramos, TMD8, U2932; Compound 35 in MEC-1; 4 hours, then anti-IgM 10 mins
Text: By assaying a number of cellular biochemical and functional endpoints, the properties of the compounds were further characterized. […] In this experiment, PC132765 (purchased from Shanghai Haoyuan Chemexpress Co., Ltd.), CGI11746 (purchased from Shanghai Haoyuan Chemexpress Co., Ltd.) and Compound 6 (prepared herein) were used as control (see FIGS. 2a-2f).
Effects of the compounds on phosphorylation of BTKY223, BTKY551, PLCγ1Y783, PLCγ2Y759, PLCγ2Y1217, P—NF-κB P65, P-AKT Ser473, Erk Thr202/Tyr204 and the like were determined (FIGS. 2a-2f).

C=CC(=O)Nc1cc(Nc2cc(-c3cccc(NC(=O)c4ccc(C(C)(C)C)cc4)c3C)cn(C)c2=O)ccc1C(=O)N1CCOCC1 [Compound 1, N-(3-(5-((3-acrylamide-4-(morpholin-4-carbonyl)phenyl)amino)-1-methyl-6-oxo-1,6-dihydropyridin-3-yl)-2-methylphenyl)-4-(tert-butyl)benzamide]
cleavage of DNA repairase poly(ADP-ribose) polymerase (PARP) ([1]; U2932, 10 μM, 48 hours): significant cleavage | cell apoptosis ([1]; U2932, 48 hours): could lead to cell apoptosis | phosphorylation of tyrosine Y223 on Btk [2]: selectively and significantly inhibit phosphorylation of tyrosine Y223 on Btk
